# Source: US20130012473A1, “COMBINED USE OF PHOSPHOLIPID AND SULFATE GROUPS-CARRYING POLYSACCHARIDES FOR INHIBITING METASTATIC SPREAD” (KTB TUMORFORSCHUNGSGESELLSCHAFT MBH, priority 2010, published 2013)
# How the values were obtained:
# Assay type in all cases: cell-based, mouse
# P-selectin ligands = experiment: Flow cytometry, binding of soluble P-selectin Fc chimera; conditions: 450 μM LysoPC treated cells vs control cells
# Protocol: (§1) FIG. 3: Impact of exogenous LysoPC on the surface expression of VLA-4 or VCAM-1- and P-selectin-ligands. (A) Surface expression of VLA-4 on B16.F10 cells treated with 450 μM LysoPC for 13 days was controlled by flow cytometric analysis. […] FACS histograms (A-C) show one representative of three independent experiments. In all experiments cells only incubated with the respective FITC-conjugated detection antibody served as control.
# B16.F10 cells = experiment: LysoPC-mediated toxicity, cell viability by BrdU assay
# Protocol: BrdU proliferation assay: Proliferation and viability were determined by BrdU and WST-1 assay (Roche Diagnostics GmbH, Penzberg, Germany) according to the manufacturer's instructions.
# LysoPC was toxic towards B16.F10 cells (p<0.001) at physiological concentrations (≧150 μM) in culture medium (DMEM plus 10% FCS). Thus, different amounts of BSA were added to reduce the concentration of cellular assessable LysoPC (monomolecular and micellar dissolved) and to therefore reduce LysoPC toxicity. Viability of the tumor cells was determined by BrdU assay and adding 10 mg BSA/ml, reduced cell viability was evident above 300 μM LysoPC. Using 20 mg/ml, reduced cell viability was evident above 450 μM LysoPC. Thus, to avoid toxicity of exogenous LysoPC (150 μM to 900 μM) towards the tumor cells during the LysoPC-removal-assay (FIG. 1), addition of 20 mg-40 mg BSA/ml DMEM was essential.
# [1] = tested on: P-selectin mediated interaction of B16.F10 cells with activated platelets; experiment: Binding of calcein-labeled TRAP-14 activated platelets to B16.F10 cells; conditions: cells treated with 450 μM LysoPC for 48 h
# Protocol: Platelet isolation: Platelets from blood of healthy volunteers were separated, routinely tested for viability, and activated by TRAP-14 (Bachem GmbH, Weil am Rhein, Germany) as recently described (Fritzsche, J. et al., Thromb. Haemost. 100:1166-1175 (2008)). Isolated platelets were stored at 37° C. in a water bath.
# B) Binding of calcein-labeled TRAP-14 activated platelets to B16.F10 cells treated with 450 μM LysoPC for 48 h was analyzed by fluorescence microscopy. […] Data represent means±SD from three independent experiments. P, resting platelets; aP, activated platelets; LysoPC, LysoPC treated B16.F10 cells; Ab, Ig-matched control antibody.
# VCAM-1 Fc chimera = experiment: Flow cytometry, binding of soluble VCAM-1 Fc chimera; conditions: repeatedly incubated with 450 μM LysoPC for 13 days
# Protocol: as §1
smiles,measurement,setting,value
CCCCCCCCCCCCCCCCC(=O)OC[C@@H](O)COP(=O)([O-])OCC[N+](C)(C)C [LysoPC],expression of P-selectin ligands (P-selectin-Fc chimera binding),P-selectin ligands,remained unchanged
same,LysoPC concentration with reduced cell viability,B16.F10 cells; 10 mg BSA/ml added,above 300 μM
same,LysoPC concentration with reduced cell viability,B16.F10 cells; 20 mg/ml BSA added,above 450 μM
same,toxic LysoPC concentration,"B16.F10 cells; culture medium DMEM plus 10% FCS, no added BSA, p<0.001",≥ 150 µM
same,interaction of B16.F10 cells with activated platelets,[1],significantly (p<0.001) reduced P-selectin mediated interaction with activated platelets to the level of resting cells
same,functionality of VLA-4 to interact with soluble VCAM-1-Fc chimera,VCAM-1 Fc chimera,only slightly impaired
